From US5866576A, “Epoxide-containing compounds” (Cell Therapeutics, Inc., priority 1997, dated 1999)

Tests used:
[1] = system: murine splenocytes; experiment: murine splenocyte proliferation co-stimulated by anti-mu and IL-4 (FIG. 11); type: cell-based; settings: Mus musculus, anti-mu / IL-4 12.5 ng/ml
Experimental: This example illustrates inhibitive effects of compounds nos. 1439, 1553S, 1560 and 1565 on murine splenocyte proliferation co-stimulated by anti-mu ([…]) and interleukin-4 (IL-4, 12.5 ng/ml). This in vitro assay, described above, is indicative of immune-suppressive/autoimmune treatment assay emphasizing humoral or B cell immune response. This assays are a predictive model for treatment or prevention of autoimmune diseases, such as diabetes, lupus, arthritis, and the like. The assay measures immunosuppressive activity of a drug at the B cell level. Spleens from adult mice contain immature B cells that express surface IgM. Cross-linking the surface IgM with an anti-mu antibody results in B cell proliferation. Additionally, this activation results in an increased expression of interleukin-4 receptors(IL-4R) on the surface of such cells. IL-4 acts as a growth factor for B cells and will increase the amount of proliferation induced by anti-mu.
A mixture of anti-mu and murine IL-4 is added to murine splenocytes to cause their proliferation. Mice spleens are obtained from adult mice and a single cell suspension is prepared in RPMI 1640 medium supplemented with 10% FCS. Cells (200,000) are plated into flat-bottomed wells and pre-incubated for 1-2 hours with various concentrations of inventive compound or PBS if it is a control. A mixture of anti-mu and murine is added to the wells at a final concentration of 5 μg/ml anti-mu and 12.5 ng/ml IL-4 and plates are incubated for three days. Proliferation is determined on the third day with a pulse of tritiated thymidine. The IC50 concentration of a particular drug is the concentration of drug that results in a 50% inhibition of the proliferation obtained from the positive control.

[2] = system: lymph node cells; experiment: ovalbumin-induced proliferation in murine lymph cells (FIG. 13); type: cell-based, Balb/C mice; settings: Mus musculus, OVA 200 μg/ml
Description: This example illustrates effects of the inventive compounds on ovalbumin-induced proliferation in murine lymph cells. Lymphnode cells contain a mixture of lymphoid cells: T-cells, B-cells and macrophages. Although proliferating cells in this assay are T-cells, the response obtained depends on type of antigen-presenting cell (e.g., macrophages) as well as elaboration of various immunoregulatory cytokines. Thus, this assay serves as a good model for T-cell mediated responses and as a valuable screening tool in identifying compounds useful in immunosuppressive therapeutic applications.
Murine T-cells proliferate in vitro in response to a soluble protein antigen if first primed with a corresponding antigen in vivo. This in vivo priming usually involves emulsifying the antigen in complete Freunds adjuvant and injecting this preparation into an appropriate site on a mouse. In this assay the antigen employed was chicken ovalbumin(OVA). Following emulsification in Freund's complete adjuvant, 50 μg of OVA were injected into both hind footpads of adult Balb/C mice. Fourteen days later the draining lymph nodes(popliteal) were removed and a single cell suspension was prepared in RPMI-1640 (10%FCS) medium. Two hundred thousand lymph node cells are then plated into wells of flat-bottom 96-well plates. Inventive compouds nos. 1410, 1553 (racemic), 1553(S), 1560 and 1565 were added to appropriate wells at various concentrations. OVA, at a final concentration of 200 μg/ml, was added to appropriate wells. Positive and negative controls were established on each plate, all assay variables being set up in quadruplicate.
The plates were incubated in a humidified, 5% CO2 incubator for 5 days. On the fifth day, 1 μCi of tritiated thymidine was added to each well and the plates were incubated for an additional 4 hours. The plates were harvested and the incorporation of 3H-TdR was determined in a liquid scintillation counter. The CPM data was then used to calculate experimental IC50 values for the compounds tested. Again, IC50 is defined as that concentration of compound resulting in 50% inhibition of 3H-TdR incorporation of the positive control.

With `Cn1cnc2c1c(=O)n(CCCCCCCC1CO1)c(=O)n2C` (centres unmarked) [Compound 1560, 1-(8,9-Oxidononyl)-3,7-dimethylxanthine] the IC50 [1] was 29 µM and the IC50 [2] was 34 µM.
